This is an account of results in patent US5324747A, “N-substituted anilines, inhibitors of phospholipases A2” (Hoffmann-La Roche Inc., priority 1992, dated 1994).

For one experiment, the target named is T1, HSF-PLA2 (Homo sapiens, UniProt P14555).
T1 construct: extracellular enzyme obtained from human synovial fluid (HSF-PLA2); from tissue; host or cells: pooled human synovial fluid, added at 0.1% (v/v)
T1 sequence (P14555 21-144): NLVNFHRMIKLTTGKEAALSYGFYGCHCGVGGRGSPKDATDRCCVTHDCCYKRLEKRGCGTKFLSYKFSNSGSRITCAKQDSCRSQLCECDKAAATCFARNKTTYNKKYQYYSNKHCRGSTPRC
The experiment can be described thus: Assay for Inhibition of HSF-PLA2 In Vitro. The class given is biochemical. As to conditions: (1 μM); read-out: Inhib of HSF-PLA2, % inhibition. The method, then: Assay for Inhibition of HSF-PLA2 In Vitro
The PLA2 used in this test is the extracellular enzyme obtained from human synovial fluid (HSF-PLA2).
The optimal conditions which were developed for the assay of HSF-PLA2 inhibitors are summarized as follows. […] The reaction was initiated by the addition of HSF-PLA2 and duplicate samples of the mixture were incubated in 13×100 mm glass tubes with shaking for 30 minutes at 37° C. […] The extraction of lipids from the stopped reaction mixture was conducted by the further additions of […] of chloroform and 1 ml of water with mixing. After centrifuging, the lower chloroform phase was transferred to smaller glass tubes and the solvent was evaporated to dryness with a nitrogen stream. The extracted lipid residue was redissolved in 50 μl of a solution containing carrier oleic acid (0.2 mg/ml) of chloroform-methanol [9 to 1, v/v]). The whole lipid extract was applied to a preactivated (30 minutes at 110° C.) silica gel-impregnated glass fiber thin layer chromatography sheet (ITLC type SG sheet from Gelman Sciences, Inc., Ann Arbor, Mich.) using hexane-acetic acid (100 to 1, v/v) as the developing solvent. This TLC system rapidly (6 minutes) resolved the enzymatically released product, ^14 C-oleic acid, from the unreacted ^14 C-phospholipid substrate. The unsaturated lipids were located on the chromatogram by a brief exposure to iodine vapor. […] A control incubation of substrate in the absence of HSF-PLA2 was performed in each experiment.
Regarding `CCCCCCCCCC(=O)Oc1cc(OC(=O)CCCCCCCCC)cc(N(CC(=O)O)CC(=O)O)c1` [Example 6u, N-(carboxymethyl)-N-[3,5-bis[(1-oxodecyl)oxy]phenyl]glycine], the inhibition at 1 µM was found to be 64%.

Consider `CCCCCCCCCCCCCCc1ccc(N(CC(=O)O)CC(=O)O)cc1` [Example 39, N-(carboxymethyl)-N-(4-tetradecylphenyl)glycine], for which the inhibition at 1 µM was 67%.

For the compound `CCCCCCCCCCc1ccc(N(CC(=O)O)CC(=O)O)cc1` [Example 39d, N-(carboxymethyl)-N-(4-decylphenyl)glycine], the inhibition at 1 µM was found to be 39%.

The same experiment, now with this note: (5 μM); read-out: Inhib of HSF-PLA2, % inhibition.
For `CCCCC/C=C\C/C=C\CCCCCCCC(=O)Nc1cccc(N(CC(=O)O)CC(=O)O)c1` [Example 51, N-(carboxymethyl)-N-[3-[(9Z,12Z)-(1-oxo-9,12-octadecadienyl)amino]phenyl]glycine], the inhibition at 5 µM came to 67%.

As for `CCCCCCCC/C=C\CCCCCCCC(=O)Nc1cccc(N(CC(=O)O)CC(=O)O)c1` [Example 51], the inhibition at 5 µM turned out to be 63%.

Still in this experiment, the particulars now being: (10 μM); read-out: Inhib of HSF-PLA2, % inhibition.
On to `O=C(O)CN(CC(=O)O)c1cc(C(=O)NC23CC4CC(CC(C4)C2)C3)cc(C(=O)NC23CC4CC(CC(C4)C2)C3)c1` [Example 6s], for which the inhibition at 10 µM worked out at 30%.

Regarding `CCCCCCCCCCCCCCCCCCCc1cc(CCCCCCCCCCCCCCCCCCC)cc(N(CC(=O)O)CC(=O)O)c1` [Example 6t, N-(carboxymethyl)-N-(3,5-dinonadecylphenyl)glycine], the inhibition at 10 µM amounted to 39%.

On to `CCCCCCCCCCNC(=O)c1cccc(N(CC(=O)O)CC(=O)O)c1` [Example 36d, N-(carboxymethyl)-N-[[(decylamino)carbonyl]phenyl]glycine], for which the inhibition at 10 µM is 46%.

With `O=C(O)CN(CC(=O)O)c1cccc(OCCOc2ccc3ccccc3c2)c1` [Example 36g, N-(carboxymethyl)-N-[(3-(2-naphthalenyloxy)ethoxy]phenyl]glycine], the inhibition at 10 µM came to 19%.

With `CCCCCCCCCCCCCCOc1cc(NCC(=O)O)cc(OCCCCCCCCCCCCCC)c1` [Example 127c, N-[3,5-bis(tetradecyloxy)phenyl]glycine], the inhibition at 10 µM came out at 73%.

Still in this experiment, the particulars now being: (20 μM); read-out: Inhib of HSF-PLA2, % inhibition.
On to `O=C(O)CCCCOc1cc(OCCCCC(=O)O)cc(N(CC(=O)O)CC(=O)O)c1` [Example 6i, N-(carboxymethyl)-N-[3,5-bis[(5-hydroxy-5-oxopentyl)oxy]phenyl]glycine], for which the inhibition at 20 µM was 6%.

For `O=C(O)CN(CC(=O)O)c1cccc(C(=O)NC23CC4CC(CC(C4)C2)C3)c1` [Example 36h, N-(carboxymethyl)-N-[3-[(tricyclo[3.3.1.1/3,7/]dec-1-ylamino)carbonyl]phenyl]glycine], the inhibition at 20 µM is 25%.

As to `O=C(O)CN(CC(=O)O)c1ccccc1` [Example 39a, N-(carboxymethyl)-N-phenylglycine], the inhibition at 20 µM is -10%.

Still in this experiment, the particulars now being: read-out: Inhib of HSF-PLA2 IC50.
Take `CCCCCCCCC(O)COc1cc(NCC(=O)O)cc(OCC(O)CCCCCCCC)c1` (stereo not drawn) [127 d]: the IC50 was 3500 nM.

`CCCCCCCCCCCCCCCCCCOc1cc(OCCCCCCCCCCCCCCCCCC)cc(N(CC(=O)O)CC(=O)O)c1` [Example 6f, N-(carboxymethyl)-N-[3,5-bis(octadecyloxy)phenyl]glycine]: the IC50 was found to be 500 nM.

`O=C(O)CN(CC(=O)O)c1cc(OCCCOc2cccc(-c3ccccc3)c2)cc(OCCCOc2cccc(-c3ccccc3)c2)c1` [Example 6m]: the IC50 amounted to 580 nM.

As to `O=C(O)CN(CC(=O)O)c1cc(OCCCOc2ccc(-c3ccccc3)cc2)cc(OCCCOc2ccc(-c3ccccc3)cc2)c1` [Example 6n], the IC50 turned out to be 400 nM.

With `O=C(O)CN(CC(=O)O)c1cc(OCCOc2ccc3ccccc3c2)cc(OCCOc2ccc3ccccc3c2)c1` [Example 6o, N-(carboxymethyl)-N-[3,5-bis[2-[2-naphthalenyloxy)]ethoxy]glycine], the IC50 was 600 nM.

With `O=C(O)CN(CC(=O)O)c1cc(OCCOc2cccc3ccccc23)cc(OCCOc2cccc3ccccc23)c1` [Example 6p, N-(carboxymethyl)-N-[3,5-bis[2-[1-naphthalenyloxy)]ethoxy]glycine], the concentration for half-maximal inhibition (IC50) was found to be 2000 nM.

Turning to `CCCCCCCCCCCCCCCCCCNC(=O)c1cc(C(=O)NCCCCCCCCCCCCCCCCCC)cc(N(CC(=O)O)CC(=O)O)c1` [Example 6r, N-(carboxymethyl)-N-[3,5-bis[(octadecylamino)carbonyl]phenyl]glycine], the IC50 was 640 nM.

Turning to `CCCCCCCCCC(=O)Nc1cc(NC(=O)CCCCCCCCC)cc(N(CC(=O)O)CC(=O)O)c1` [Example 21], the IC50 came to 3800 nM.

On to `CCCCCCCCCCc1cc(CCCCCCCCCC)cc(N(CC(=O)O)CC(=O)O)c1` [Example 29, N-(Carboxymethyl)-N-(3,5-didecylphenyl) glycine], for which the half-inhibitory concentration (IC50) came to 1500 nM.

`CCCCCCCCCCCCCCCCCCCc1cccc(N(CC(=O)O)CC(=O)O)c1` [Example 36f, N-(carboxymethyl)-N-(3-nonadecylphenyl)glycine]: the 50% inhibitory concentration (IC50) amounted to 200 nM.

`CCCCC/C=C\C/C=C\CCCCCCCCOc1cccc(N(CC(=O)O)CC(=O)O)c1` [Example 49, N-(carboxymethyl)-N-[3-[(9Z,12Z)-(9,12-octadecadienyl]oxy]phenyl]glycine]: the IC50 came to 200 nM.

As to `CCCCCCCC/C=C\CCCCCCCCOc1cccc(N(CC(=O)O)CC(=O)O)c1` [Example 49], the IC50 turned out to be 300 nM.

Turning to `CCCCCCCCCCCCCCCCCCOc1cc(OCCCCCCCCCCC(=O)OC)cc(N(CC(=O)O)CC(=O)O)c1` [Example 58d, N-(carboxymethyl)-N-[3-(11-methoxy-11-oxoundecyloxy)-5-(octadecyloxy)phenyl]glycine], the IC50 turned out to be 80 nM.

On to `CCCCCCCCCCCCCCCCCCOc1cc(OCCCCCCCCCCC(=O)O)cc(N(CC(=O)O)CC(=O)O)c1` [Example 58e], for which the IC50 was 200 nM.

As to `CCCCCCCCCCCCCCCCCCOc1cc(OC(=O)C23CC4CC(CC(C4)C2)C3)cc(N(CC(=O)O)CC(=O)O)c1` [Example 58f, N-(Carboxymethyl)-N-[[3-(octadecyloxy)-5-(tricyclo[3.3.1.1/3,7]dec-1-ylcarbonyl)oxy]phenyl]glycine], the IC50 amounted to 300 nM.

For the compound `CCCCCCCCCCCCCCCCCCOc1cc(OC(=O)C(c2ccccc2)c2ccccc2)cc(N(CC(=O)O)CC(=O)O)c1` [Example 58g], the IC50 was determined as 100 nM.

Consider `CCCCCCCCCCCCCCCCCCOc1cc(OCCCOc2cccnc2)cc(N(CC(=O)O)CC(=O)O)c1` [Example 58i], for which the IC50 came to 300 nM.

With `CCCCCCCCCCCCCCCCCCOc1cc(OC(C)=O)cc(N(CC(=O)O)CC(=O)O)c1` [Example 80], the IC50 is 220 nM.

For the compound `CCCCCCCCCCOc1ccc(N(CC(=O)O)CC(=O)O)cc1OCCCCCCCCCC` [Example 119a, N-(carboxymethyl)-N-[3,4-bis(decyloxy)phenyl]glycine], the IC50 turned out to be 160 nM.

In the case of `CCCCCCCCCCCCCCCCCCOc1cc(NCC(=O)O)cc(OC(=O)C23CC4CC(CC(C4)C2)C3)c1` [Example 175, N-[[3-(Octadecyloxy)-5-(tricyclo[3.3.1.1/3.7/]dec-1-ylcarbonyl)oxy]phenyl]glycine], the IC50 is 300 nM.
